Measured values as given in patent publication EP3431088A1, “MNTBAP FOR USE IN INDUCING A TRANSIENT IMMUNE TOLERANCE” (priority 2017, dated 2019).

Key:
CD4 and P56^Lck = assay: CD4 immunoprecipitation probed with anti-p56Lck; format: cell-based; conditions: viable murine splenic enriched CD4+ T cells, 2 hours, 400 µM
Description: Cells, harvested after 2 hours of culture with or without MnTBAP, are resuspended in solubilization buffer containing 1% NP-40 (Sigma-Aldrich), 0.1 M (NH4)2SO4, 20 mM Tris (pH 7.5), 10% glycerol, 25 mM NaF (Sigma-Aldrich), 1 mM Na3VO4 (Thermo Fisher Scientific, Villebon-sur-Yvette, France) and 1x protease inhibitor mixture (Roche, Basel, Switzerland). After 30 minutes of incubation under gentle agitation, cell lysates are centrifuged at 14,000 x g for 30 minutes. Lysates are frozen in aliquots at -20°C or used immediately. Immunoprecipitation is performed by incubation overnight of lysates with rat anti-mouse CD4 (GK 1.5, Biolegend, San Diego, CA, USA) under gentle agitation at 4°C. The antigen-antibody complex is then added to Protein A/G resin slurry (Pierce, Thermo Fisher scientific), and incubated with gentle mixing for 2 hours at room temperature, and finally microcentrifuged for 30 seconds. The pellet is washed five times with solubilization buffer, and the immunoprecipitated material is eluted by incubating the complex for 2-5 minutes at 95-100°C in Laemmli sample buffer prepared without β-ME. […] Infrared fluorescence of the secondary antibodies was read on an Odyssey Imaging System, and quantification of bands was performed using the ImageStudio Lite software (LI-COR Biosciences).

CD4 = assay: Time-lapse microscopy of CD4 cell surface fluorescence; format: cell-based, murine; conditions: time lapse for 4 hours, 400 µM, vs control
Description: Murine splenic CD4^+ T cells are first stained with CFSE, according to the manufacturer's recommendations (Invitrogen), and then with rat anti-mouse CD4-APC (RM4-5, BD Biosciences) mAb. After staining, cells are incubated in Ibidi's µ-chambers culture dish (Ibidi, Nanterre, France) in the thermo-regulated chamber of the Zeiss Axiovert 100 M confocal microscope. A time lapse acquisition is performed with a delay of 120 sec between frames. Each frame is illuminated using a 488 nm and 633 nm lasers, and fluorescence collected using 505-580 nm and 644-719 nm filters. The magnification is 40x/1.3 oil and images are saved as 8bits. The image stack is splitted using ImageJ-1.43, and images analyzed using CellProfiler 2.0.10415. The cell segmentation is performed on the CFSE fluorescence, and the fluorescence of the CD4 staining analyzed using the R software. Intensity is normalized to the maximum fluorescence measured at T0 for each condition.

rAAV1 CMV mSeap vector = assay: rAAV readministration in TA: mSeap expression and vector copy number; format: in vivo, C57BL/6 mice
Description: MnTBAP (Calbiochem, San Diego, USA or Enzo Life Sciences, Farmingdale, USA) is dissolved in 75 mM NaOH to constitute a 20 mM stock solution. MnTBAP is dissolved in the complete medium, used for in vitro treatment, containing RPMI-1640 supplemented with 10% heat-inactivated fetal calf serum, 100 U/ml penicillin/streptomycin, 2 mM glutamax and 50 µM β-mercaptoethanol β-ME). Hypertonic medium, used to block clathrin dependent endocytosis, is complete medium supplemented with 0.45 M sucrose. For in vivo treatment, the stock solution is diluted with PBS and administered at 80 mg/kg intraperitoneally daily during five days. Control animals are injected with equivalent volume of PBS.
Readministration protocol: After the initial IV injection of rAAV2/1 CMV SGCA HY vector at D0 (two hours post first IP injection of MnTBAP) the second rAAV1 injection (2.10^9 vg of rAAV2/1 CMV mSeAP) is performed 28 days later in the left TA muscle. Mice are followed up to 93 days after readministration to analyze capsid-specific humoral response and to measure circulating mSeAP from serum samples. Mice are killed 93 days after second injection of vector. […]
Genomic DNA is extracted from frozen muscles using MagNA Pure 96 Instrument (Roche). […] Results are calculated from a standard curve based on dilutions of 2 plasmids containing either the Titin or CMV sequences. […]
Determination of alkaline phosphatase concentration in immunized mice sera is performed by chemoluminescence analyzis (C. Riviere et al., Gene therapy 13, 1300. 2006). Blood samples are centrifuged for 10 min at 8000 rpm to collect sera, endogenous alkaline phosphatase is heat inactivated for 5 min at 65°C and the heat-resistant mSeAP is measured by addition of the reaction buffer and CSPD® chemiluminescent substrate, according to the manufacturer's instructions (Tropix, Applied Biosystems, Forster City, USA). Chemiluminescence is quantified using a luminometer, Enspire (Perkin Elmer, Massachusetts, USA). Expression levels are expressed as ng of mSeAP per ml of serum using a standard curve of purified human placental alkaline phosphatase.

O=C(O)c1ccc(-c2c3nc(c(-c4ccc(C(=O)O)cc4)c4ccc([n-]4)c(-c4ccc(C(=O)O)cc4)c4nc(c(-c5ccc(C(=O)O)cc5)c5ccc2[n-]5)C=C4)C=C3)cc1.[Mn+3] [MnTBAP, manganese [III] tetrakis (4-benzoic acid) porphyrin]
link between CD4 and P56^Lck (CD4 and P56^Lck): disruption of CD4 and P56^Lck is observed
CD4 cell surface fluorescence over time (CD4): CD4 declines on CD4^+ T cells
level of mSeap in the serum (rAAV1 CMV mSeap vector; 93 days after vector readministration, vs control mice): significantly increased
histochemical detection of mSeap in muscle (rAAV1 CMV mSeap vector; injected TA harvested 93 days after vector readministration): detection of the reporter gene mSeap
normalized copy number of the readministered rAAV (rAAV1 CMV mSeap vector; injected TA, CMV PCR normalized to titin, vs control mice): significantly increased
